For 4 compounds, mutagenic call results are on record in PubChem BioAssay AID1259407 (Chemical Carcinogenesis Research Information System (CCRIS), 2018).

Entries after “also recorded” stand apart in the source; their conditions may differ. Calls of active or inactive are those of the source. No rule for the calls is given here.

In this data set the test system is CCRIS mutagenicity, Ames/micronucleus/aberration tests. Description: CCRIS mutagenicity studies.
The mark [1] stands for this setting: Test System: AMES SALMONELLA TYPHIMURIUM, Strain/Indicator: TA98, Metabolic Activation: NONE, Method: PREINCUBATION
[2] abbreviates: Test System: AMES SALMONELLA TYPHIMURIUM, Strain/Indicator: TA100, Metabolic Activation: NONE, Method: PREINCUBATION

Consider `O=[N+]([O-])c1ccc(OCC2CO2)cc1` (centres undefined), for which the mutagenic call reads like this: under setting [1], “inactive; negative”; under setting [2], “active; positive”; (Test System: AMES SALMONELLA TYPHIMURIUM, Strain/Indicator: TA100, Metabolic Activation: NONE, Method: STANDARD PLATE) “active; positive”; (Test System: AMES SALMONELLA TYPHIMURIUM, Strain/Indicator: TA104, Metabolic Activation: NONE, Method: STANDARD PLATE) “active; positive”; (Test System: AMES SALMONELLA TYPHIMURIUM, Strain/Indicator: TA4001, Metabolic Activation: NONE, Method: STANDARD PLATE) “active; positive”; (Test System: AMES SALMONELLA TYPHIMURIUM, Strain/Indicator: TA4006, Metabolic Activation: NONE, Method: STANDARD PLATE) “active; positive”.
Turning to `CCCCN(CO)N=O`, the mutagenic call (Test System: CHINESE HAMSTER V-79, Strain/Indicator: V-79/OUABAIN, Metabolic Activation: NONE) is “active; positive”.
`NS(=O)(=O)c1cc(C(=O)O)c(NCc2ccco2)cc1Cl`: the mutagenic call is, setting by setting: (End Point: IN VITRO CHROMOSOMAL ABERRATIONS, Test System: CHO CELLS, Metabolic Activation: NONE) “active; positive; precipitation occurred at 3750 and 5000 ug/ml; also recorded: active; positive; precipitation occurred at 2513 ug/ml”; (End Point: IN VITRO CHROMOSOMAL ABERRATIONS, Test System: CHO CELLS, Metabolic Activation: RAT, LIVER, S-9, AROCLOR 1254) “active; positive; precipitation occurred at all doses”; (Test System: AMES SALMONELLA TYPHIMURIUM, Strain/Indicator: TA98, Metabolic Activation: HAMSTER, LIVER, S-9, AROCLOR 1254 (10%), Method: PREINCUBATION) “inactive; negative”; (Test System: AMES SALMONELLA TYPHIMURIUM, Strain/Indicator: TA98, Metabolic Activation: HAMSTER, LIVER, S-9, AROCLOR 1254, Method: PREINCUBATION) “inactive; negative”; under setting [1], “inactive; negative”; (Test System: AMES SALMONELLA TYPHIMURIUM, Strain/Indicator: TA98, Metabolic Activation: RAT, LIVER, S-9, AROCLOR 1254 (10%), Method: PREINCUBATION) “inactive; negative”. Moreover, the mutagenic call reads like this: (Test System: AMES SALMONELLA TYPHIMURIUM, Strain/Indicator: TA98, Metabolic Activation: RAT, LIVER, S-9, AROCLOR 1254, Method: PREINCUBATION) “inactive; negative”; (Test System: AMES SALMONELLA TYPHIMURIUM, Strain/Indicator: TA100, Metabolic Activation: HAMSTER, LIVER, S-9, AROCLOR 1254 (10%), Method: PREINCUBATION) “inactive; negative”; (Test System: AMES SALMONELLA TYPHIMURIUM, Strain/Indicator: TA100, Metabolic Activation: HAMSTER, LIVER, S-9, AROCLOR 1254, Method: PREINCUBATION) “inactive; negative”; under setting [2], “inactive; negative”; (Test System: AMES SALMONELLA TYPHIMURIUM, Strain/Indicator: TA100, Metabolic Activation: RAT, LIVER, S-9, AROCLOR 1254 (10%), Method: PREINCUBATION) “inactive; negative”; (Test System: AMES SALMONELLA TYPHIMURIUM, Strain/Indicator: TA100, Metabolic Activation: RAT, LIVER, S-9, AROCLOR 1254, Method: PREINCUBATION) “inactive; negative”. Also, the mutagenic call is “inactive; negative” (Test System: AMES SALMONELLA TYPHIMURIUM, Strain/Indicator: TA1535, Metabolic Activation: HAMSTER, LIVER, S-9, AROCLOR 1254 (10%), Method: PREINCUBATION); “inactive; negative” (Test System: AMES SALMONELLA TYPHIMURIUM, Strain/Indicator: TA1535, Metabolic Activation: HAMSTER, LIVER, S-9, AROCLOR 1254, Method: PREINCUBATION); “inactive; negative” (Test System: AMES SALMONELLA TYPHIMURIUM, Strain/Indicator: TA1535, Metabolic Activation: NONE, Method: PREINCUBATION); “inactive; negative” (Test System: AMES SALMONELLA TYPHIMURIUM, Strain/Indicator: TA1535, Metabolic Activation: RAT, LIVER, S-9, AROCLOR 1254 (10%), Method: PREINCUBATION); “inactive; negative” (Test System: AMES SALMONELLA TYPHIMURIUM, Strain/Indicator: TA1535, Metabolic Activation: RAT, LIVER, S-9, AROCLOR 1254, Method: PREINCUBATION); “inactive; negative” (Test System: AMES SALMONELLA TYPHIMURIUM, Strain/Indicator: TA1537, Metabolic Activation: HAMSTER, LIVER, S-9, AROCLOR 1254 (10%), Method: PREINCUBATION). In addition, the mutagenic call was “inactive; negative” (Test System: AMES SALMONELLA TYPHIMURIUM, Strain/Indicator: TA1537, Metabolic Activation: HAMSTER, LIVER, S-9, AROCLOR 1254, Method: PREINCUBATION); “inactive; negative” (Test System: AMES SALMONELLA TYPHIMURIUM, Strain/Indicator: TA1537, Metabolic Activation: NONE, Method: PREINCUBATION); “inactive; negative” (Test System: AMES SALMONELLA TYPHIMURIUM, Strain/Indicator: TA1537, Metabolic Activation: RAT, LIVER, S-9, AROCLOR 1254 (10%), Method: PREINCUBATION); “inactive; negative” (Test System: AMES SALMONELLA TYPHIMURIUM, Strain/Indicator: TA1537, Metabolic Activation: RAT, LIVER, S-9, AROCLOR 1254, Method: PREINCUBATION); “inactive; negative” (Test System: MOUSE LYMPHOMA, Strain/Indicator: L5178Y (TK+/TK-), Metabolic Activation: NONE, Method: SUSPENSION/PLATE); “active; positive” (Test System: MOUSE LYMPHOMA, Strain/Indicator: L5178Y (TK+/TK-), Metabolic Activation: RAT, LIVER, S-9, AROCLOR 1254, Method: SUSPENSION/PLATE).
Consider `C(=N\NC1=NCCN1)/c1c2ccccc2c(/C=N/NC2=NCCN2)c2ccccc12`, for which the mutagenic call is “active; positive” (Test System: AMES SALMONELLA TYPHIMURIUM, Strain/Indicator: TA97A, Metabolic Activation: NONE, Method: STANDARD PLATE); “active; positive” (Test System: AMES SALMONELLA TYPHIMURIUM, Strain/Indicator: TA98, Metabolic Activation: NONE, Method: STANDARD PLATE); “active; positive” (Test System: AMES SALMONELLA TYPHIMURIUM, Strain/Indicator: TA1538, Metabolic Activation: NONE, Method: STANDARD PLATE).
